Activity calls are given as the source filed them. The calls are words filed in the database; no cut-off is given here.
Assays:
Format in all cases: protein assay
[1] = molecular target: T1, Alpha-1,2-mannosidase (BT_1769) (Bacteroides thetaiotaomicron) (UniProt Q8A6V7); assay: Activity of Bacteroides thetaiotaomicron GH92 alpha-mannosidase GH92 alpha-mannosidase 1769 assessed as mannose release at 1 mM after 16 hrs by HPLC relative to untreated control after 16 hrs by HPLC
T1 sequence (whole entry): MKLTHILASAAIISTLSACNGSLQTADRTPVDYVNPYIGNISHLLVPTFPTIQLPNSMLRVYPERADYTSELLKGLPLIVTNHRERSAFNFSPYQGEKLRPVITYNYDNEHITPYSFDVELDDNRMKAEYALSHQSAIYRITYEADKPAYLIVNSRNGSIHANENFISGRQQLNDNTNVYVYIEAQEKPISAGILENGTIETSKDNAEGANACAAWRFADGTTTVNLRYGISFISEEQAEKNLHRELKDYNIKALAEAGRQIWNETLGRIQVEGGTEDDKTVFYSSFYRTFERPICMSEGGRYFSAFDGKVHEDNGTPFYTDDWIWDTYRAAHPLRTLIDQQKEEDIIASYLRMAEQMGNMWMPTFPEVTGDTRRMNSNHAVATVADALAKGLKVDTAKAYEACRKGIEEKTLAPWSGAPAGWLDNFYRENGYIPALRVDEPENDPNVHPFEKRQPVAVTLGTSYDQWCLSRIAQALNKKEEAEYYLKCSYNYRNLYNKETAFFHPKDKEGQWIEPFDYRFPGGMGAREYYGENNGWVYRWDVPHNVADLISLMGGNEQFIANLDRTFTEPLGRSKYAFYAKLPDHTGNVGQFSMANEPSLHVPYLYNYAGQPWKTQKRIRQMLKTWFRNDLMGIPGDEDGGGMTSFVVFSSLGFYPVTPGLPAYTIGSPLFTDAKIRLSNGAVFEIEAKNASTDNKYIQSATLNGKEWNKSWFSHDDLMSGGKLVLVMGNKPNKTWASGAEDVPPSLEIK

[2] = molecular target: T2, Alpha-1,2-mannosidase (BT_3991) (Bacteroides thetaiotaomicron) (UniProt Q8A0N0); assay: Activity of Bacteroides thetaiotaomicron GH92 alpha-mannosidase GH92 alpha-mannosidase 3991 assessed as mannose release at 1 mM after 16 hrs by HPLC relative to untreated control after 16 hrs by HPLC
T2 sequence (whole entry): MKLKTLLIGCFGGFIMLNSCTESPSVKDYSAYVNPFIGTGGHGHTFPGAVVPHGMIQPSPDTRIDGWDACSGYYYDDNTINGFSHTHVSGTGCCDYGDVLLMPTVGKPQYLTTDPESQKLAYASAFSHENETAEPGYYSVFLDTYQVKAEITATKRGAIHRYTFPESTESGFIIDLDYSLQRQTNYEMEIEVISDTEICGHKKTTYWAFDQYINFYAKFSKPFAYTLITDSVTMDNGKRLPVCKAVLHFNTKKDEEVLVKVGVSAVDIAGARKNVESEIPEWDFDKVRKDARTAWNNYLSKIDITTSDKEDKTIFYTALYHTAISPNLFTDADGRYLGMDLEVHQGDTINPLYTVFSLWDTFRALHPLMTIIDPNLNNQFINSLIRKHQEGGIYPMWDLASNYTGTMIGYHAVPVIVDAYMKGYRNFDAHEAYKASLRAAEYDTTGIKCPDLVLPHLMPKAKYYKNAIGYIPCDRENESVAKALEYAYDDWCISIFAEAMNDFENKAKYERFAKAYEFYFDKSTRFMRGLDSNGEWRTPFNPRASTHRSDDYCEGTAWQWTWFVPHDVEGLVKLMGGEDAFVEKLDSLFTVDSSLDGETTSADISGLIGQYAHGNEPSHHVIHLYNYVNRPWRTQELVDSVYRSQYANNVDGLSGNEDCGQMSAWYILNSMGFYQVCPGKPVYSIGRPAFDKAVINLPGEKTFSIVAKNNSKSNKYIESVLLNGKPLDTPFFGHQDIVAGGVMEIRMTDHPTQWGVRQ

[3] = molecular target: T3, Alpha-1,2-mannosidase (BT_4092) (Bacteroides thetaiotaomicron) (UniProt Q8A0C9); assay: Activity of Bacteroides thetaiotaomicron GH92 alpha-mannosidase GH92 alpha-mannosidase 4092 assessed as mannose release at 1 mM after 16 hrs by HPLC relative to untreated control after 16 hrs by HPLC
T3 sequence (whole entry): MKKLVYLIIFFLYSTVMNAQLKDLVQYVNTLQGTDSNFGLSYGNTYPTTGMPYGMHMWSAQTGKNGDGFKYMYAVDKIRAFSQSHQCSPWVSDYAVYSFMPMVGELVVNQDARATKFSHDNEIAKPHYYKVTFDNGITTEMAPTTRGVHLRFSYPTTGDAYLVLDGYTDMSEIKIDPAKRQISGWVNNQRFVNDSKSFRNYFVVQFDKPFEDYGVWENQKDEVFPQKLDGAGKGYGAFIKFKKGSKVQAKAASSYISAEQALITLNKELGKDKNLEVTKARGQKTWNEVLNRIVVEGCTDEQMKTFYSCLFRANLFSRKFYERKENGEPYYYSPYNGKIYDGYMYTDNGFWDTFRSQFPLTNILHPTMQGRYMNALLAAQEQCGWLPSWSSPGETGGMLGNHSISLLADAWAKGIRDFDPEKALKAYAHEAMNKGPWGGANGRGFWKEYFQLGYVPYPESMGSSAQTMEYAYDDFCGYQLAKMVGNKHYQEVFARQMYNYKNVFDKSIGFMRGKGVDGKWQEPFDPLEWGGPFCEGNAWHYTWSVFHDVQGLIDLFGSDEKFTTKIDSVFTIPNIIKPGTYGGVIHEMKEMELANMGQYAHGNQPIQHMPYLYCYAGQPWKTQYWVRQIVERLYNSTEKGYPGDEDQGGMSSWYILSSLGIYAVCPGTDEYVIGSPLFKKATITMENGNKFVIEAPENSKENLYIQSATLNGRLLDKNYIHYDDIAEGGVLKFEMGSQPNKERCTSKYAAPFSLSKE

## OC[C@H]1O[C@H](OC[C@H]2O[C@H](O)[C@@H](O)[C@@H](O)[C@@H]2O)[C@@H](O)[C@@H](O)[C@@H]1O
[1]
  Activity: inactive
[2]
  Activity: 1.51%
[3]
  Activity: inactive

## OC[C@H]1O[C@H](O[C@H]2[C@H](O)[C@H](O)[C@@H](O)O[C@@H]2CO)[C@@H](O)[C@@H](O)[C@@H]1O
[1]
  Activity: 0.026%
[2]
  Activity: inactive
[3]
  Activity: 0.73%

## OC[C@H]1O[C@H](O[C@H]2[C@@H](O)[C@H](O)[C@@H](CO)O[C@@H]2O)[C@@H](O)[C@@H](O)[C@@H]1O
[1]
  Activity: 0.0023%
[2]
  Activity: 0.8%
[3]
  Activity: 100%

## OC[C@H]1O[C@H](O[C@@H]2[C@H](O)[C@@H](O)O[C@H](CO)[C@H]2O)[C@@H](O)[C@@H](O)[C@@H]1O
[3]
  Activity: 0.34%
